For four compounds, inhibition, EC50 and IC50 results are on record in patent publication EP4592286A1, “MACROCYCLIC NITROGEN-CONTAINING CROWN ETHER COMPOUND AND USE THEREOF AS PROTEIN KINASE INHIBITOR” (Artivila Biopharma, priority 2022, dated 2024).

The target of assay [1] is TYK2 (Homo sapiens, UniProt P29597). As to the kind of experiment: experiment of inhibiting kinase activity, TYK2. Type of assay: biochemical. The conditions noted are these: at 10 nM; read-out: inhibition rate TYK2. Here is the method:
(§1) The inhibition rates of tested compounds on JAK1, JAK2, JAK3, TYK2, CDK7, CDK9, EGFR (T790M) and LRRK2 kinases were measured. The test concentrations of the compounds were 10 nM and 100 nM, and the detection was performed by replicate wells. Alternatively, compounds were 3-fold serial diluted from 10 µM for 10 concentrations in replicate wells.

Assay [2] concerns the target T1, wild-type LRRK2 (Homo sapiens, UniProt Q5S007).
T1 construct: pCMV-flag-WT LRRK2 (full-length); expressed in transfected cells; host or cells: HEK293T
Briefly: detection of phosphorylated S935 in HEK293T overexpressing wild-type LRRK2. The format is cell-based. The settings on record: pS935, HEK293T overexpressing wild-type LRRK2, 1.5 hours. Here is the method:
(§2) Detection of phosphorylated S935 in HEK293T Overexpressing full-length LRRK2 (G2019S) or wild-type LRRK2
(§3) HEK293T cells was inoculated into a 6-well plate and cultured overnight. The next day, they were transiently transfected with plasmid pcDNA5-FRT/TO-FLAG LRRK2 (G2019S, full-length) or pCMV-flag-WT LRRK2 (full-length) by using Superfect transfection reagent and cultured at 37°C and 5% CO2 for 20-24 hours. The next day, cells were collected, resuspended at a density of 0.48×10^6 cells/ml, and inoculated into a 384-well plate at 50 microliters/well. Compound or DMSO solutions (volume ratio of 0.5%) were added by Tecan, and cultured at 37°C and 5% CO2 for 1.5 hours. After 1.5 hours, the supernatant was discarded, 50 microliters of 8% PFA were added in each well to fix the cells, and the cells were incubated at room temperature for 1 hour. The plate was washed with EL406 plate washer for three times, with 115 microliters of PBST per well, and the culture plate was patted to dryness. The cells were blocked with 50 microliters/well of Licor Odyssey blocking solution (0.1% Tween 20) at room temperature for 1.5 hours. The blocking solution was discarded and the culture plate was patted to dryness. 20 microliters of primary antibody (1:1000(pS935), diluted with Licor Odyssey buffer (0.1% Tween20)) was added into each well, and incubated at 4 °C overnight. The next day, the first antibody was discarded and washing was performed with PBST for five times. 20 microliters of secondary antibody (diluted with Licor Odyssey buffer (0.1% Tween20) at 1:500 and stained with DNA at 1:2000) were added into each well, and incubated at room temperature for 1 hour. The second antibody was discarded, and washing was performed for three times with PBST. The fluorescence intensity was measured by LICOR Odyssey imager Scanner, and the data was analyzed.

Assay [3] has as its target T2, LRRK2 (G2019S) (Homo sapiens, UniProt Q5S007, G2019S).
T2 construct: pcDNA5-FRT/TO-FLAG LRRK2 (G2019S, full-length); expressed in transfected cells; host or cells: HEK293T
As to the kind of experiment: detection of phosphorylated S935 in HEK293T overexpressing full-length LRRK2 (G2019S). Type of assay: cell-based. The conditions noted are these: pS935, HEK293T overexpressing LRRK2 (G2019S), 1.5 hours. Here is the method: as §2, §3

Assay [4] concerns the target LRRK2 (Homo sapiens, UniProt Q5S007). As to the kind of experiment: experiment of inhibiting kinase activity, LRRK2. The format is biochemical. The conditions noted are these: for inhibition at 0.01 µM: at 10 nM; for pIC50: kinase activity assay, Table 3. Here is the method:
as §1

In assay [5] the target is JAK2 (Homo sapiens, UniProt O60674). As to the kind of experiment: experiment of inhibiting kinase activity (Caliper mobility shift assay), JAK2. Type of assay: biochemical. The conditions noted are these: for inhibition at 0.01 µM: at 10 nM. The essentials:
(§4)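 Replicate wells; top concentration 10 µM, 3-fold steps, 10 points (or 10 nM/100 nM single doses). Enzyme preincubated 10 min RT with compound; ATP/substrate start; stop solution; Caliper conversion read. IC50 by Hill-slope curve fit.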

Assay [6] has as its target T3, JAK3 (Mus musculus, UniProt Q62137).
T3 construct: endogenous in cells; host or cells: CTLL-2
T3 sequence (Q62137 1-1100): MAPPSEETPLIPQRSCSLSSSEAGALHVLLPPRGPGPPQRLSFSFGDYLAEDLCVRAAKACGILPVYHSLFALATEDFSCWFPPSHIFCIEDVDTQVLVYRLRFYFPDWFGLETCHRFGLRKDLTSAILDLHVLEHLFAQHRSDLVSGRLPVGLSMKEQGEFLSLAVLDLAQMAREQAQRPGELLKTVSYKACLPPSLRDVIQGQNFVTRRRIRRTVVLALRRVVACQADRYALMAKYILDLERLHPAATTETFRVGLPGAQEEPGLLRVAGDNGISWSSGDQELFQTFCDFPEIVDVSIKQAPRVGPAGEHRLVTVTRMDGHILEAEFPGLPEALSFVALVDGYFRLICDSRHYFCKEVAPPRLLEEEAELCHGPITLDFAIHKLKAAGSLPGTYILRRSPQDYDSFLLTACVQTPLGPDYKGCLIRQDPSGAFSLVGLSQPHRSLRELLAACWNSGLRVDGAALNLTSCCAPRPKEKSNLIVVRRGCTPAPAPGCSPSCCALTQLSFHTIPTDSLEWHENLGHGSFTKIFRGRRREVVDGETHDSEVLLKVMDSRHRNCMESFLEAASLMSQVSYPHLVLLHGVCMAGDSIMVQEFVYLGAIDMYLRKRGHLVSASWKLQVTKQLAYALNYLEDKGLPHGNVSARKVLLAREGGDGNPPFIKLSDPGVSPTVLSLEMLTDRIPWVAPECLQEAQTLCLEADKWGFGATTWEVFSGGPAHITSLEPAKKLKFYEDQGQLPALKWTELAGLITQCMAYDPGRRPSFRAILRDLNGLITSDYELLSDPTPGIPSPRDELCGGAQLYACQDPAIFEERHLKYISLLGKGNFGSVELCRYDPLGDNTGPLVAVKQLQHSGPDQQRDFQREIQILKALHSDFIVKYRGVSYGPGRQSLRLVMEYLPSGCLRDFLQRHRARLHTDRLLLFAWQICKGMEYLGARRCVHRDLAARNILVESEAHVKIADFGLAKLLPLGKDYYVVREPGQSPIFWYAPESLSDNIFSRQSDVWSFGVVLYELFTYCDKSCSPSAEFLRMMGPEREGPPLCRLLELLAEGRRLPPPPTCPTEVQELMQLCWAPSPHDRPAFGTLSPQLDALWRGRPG
Briefly: JAKs cell activity test: JAK3_pSTAT5 in IL-2-induced CTLL-2 cells. Type of assay: cell-based. The settings on record: pSTAT5, IL-2-induced CTLL-2 cells. Here is the method: (§5) THP1 cells were collected by centrifugation, resuspended with 1×HBSS, counted and diluted to a certain cell density. They were inoculated in a 384-well plate and cultured in a saturated humidity incubator with 37 °C and 5% CO2. The compound (DMSO final volume of 0.3%) was added to THP1 cells (10 doses in duplicates) and cultured in a saturated humidity incubator with 37 °C and 5% CO2. hIL-4 was added to stimulate cells and cultured in a saturated humidity incubator with 37 °C and 5% CO2. The lysis solution was added and incubated at room temperature. According to the instructions of AlphaLISA SureFire Ultra p-STAT6 detection kit, the lysis solution was transferred to pSTAT6 detection system, and the ALPHA signal was read by PE Envision microplate reader. The inhibition rate Inh%=((DMSO-sample)/(DMSO-background))×100 was calculated. IC50 was obtained by fitting with GraphPad Prism non-linear regression equation, and y=Bottom+(Top-Bottom)/(1+10^((LogIC50-x)×hillslope)), where x was the concentration of the compound and y was the inhibition rate.
JAK2_pSTAT5 was tesed in IL-3-induced BAF3 cells according to the above steps, and JAK3_pSTAT5 was tested in IL-2-induced CTLL-2 cells (without serum stimulation) according to the above steps.

The target in assay [7] is T4, JAK3 (Homo sapiens, UniProt P52333).
T4 sequence (P52333 1-1124): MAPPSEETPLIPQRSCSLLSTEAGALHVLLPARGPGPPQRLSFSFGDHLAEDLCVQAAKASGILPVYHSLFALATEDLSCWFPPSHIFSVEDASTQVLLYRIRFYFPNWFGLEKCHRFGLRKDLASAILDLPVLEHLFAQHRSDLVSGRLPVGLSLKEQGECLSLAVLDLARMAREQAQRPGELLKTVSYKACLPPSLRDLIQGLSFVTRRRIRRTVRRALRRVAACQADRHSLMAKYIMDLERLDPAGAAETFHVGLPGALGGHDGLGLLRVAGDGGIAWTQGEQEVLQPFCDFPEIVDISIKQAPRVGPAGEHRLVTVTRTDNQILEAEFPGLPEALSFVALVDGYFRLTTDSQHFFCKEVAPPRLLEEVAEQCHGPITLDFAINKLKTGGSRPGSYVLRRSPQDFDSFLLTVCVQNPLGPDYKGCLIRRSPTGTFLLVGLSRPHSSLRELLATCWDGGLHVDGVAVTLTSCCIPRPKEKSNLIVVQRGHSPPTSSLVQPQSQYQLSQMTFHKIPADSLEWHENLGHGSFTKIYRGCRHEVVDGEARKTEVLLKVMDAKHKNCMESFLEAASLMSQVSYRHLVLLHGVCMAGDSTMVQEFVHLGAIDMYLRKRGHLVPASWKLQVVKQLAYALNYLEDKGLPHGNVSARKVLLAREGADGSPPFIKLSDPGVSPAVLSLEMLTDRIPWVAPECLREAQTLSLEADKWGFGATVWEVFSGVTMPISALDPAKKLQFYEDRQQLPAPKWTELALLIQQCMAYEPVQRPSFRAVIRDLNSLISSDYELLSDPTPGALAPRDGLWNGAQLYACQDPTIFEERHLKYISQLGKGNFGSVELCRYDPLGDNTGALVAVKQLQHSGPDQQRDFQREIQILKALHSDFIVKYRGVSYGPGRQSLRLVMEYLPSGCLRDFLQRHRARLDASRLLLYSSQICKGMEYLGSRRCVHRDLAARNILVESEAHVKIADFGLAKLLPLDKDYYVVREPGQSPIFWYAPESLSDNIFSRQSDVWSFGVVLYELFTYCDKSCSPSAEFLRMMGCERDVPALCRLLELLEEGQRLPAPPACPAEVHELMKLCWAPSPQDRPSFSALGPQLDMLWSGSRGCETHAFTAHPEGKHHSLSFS
Briefly: experiment of inhibiting kinase activity (Caliper mobility shift assay), JAK3. Type of assay: biochemical. The settings on record: at 10 nM; read-out: inhibition rate JAK3. The essentials: as §4

Assay [8] has as its target T5, JAK1 (Homo sapiens, UniProt P23458). As to the kind of experiment: JAKs cell activity test: detection of pSTAT6 in THP1 cells induced by JAK1_IL-4. The format is cell-based. The conditions noted are these: pSTAT6, IL-4-induced THP1 cells. As for the experimental part: Detection of pSTAT6 in THP1 cells induced by JAK1_IL-4
as §5

Assay [9] concerns the target T5, JAK1. Briefly: experiment of inhibiting kinase activity (Caliper mobility shift assay), JAK1. The format is biochemical. Summed up:
as §4

Where [10] appears, read: read-out: inhibition rate LRRK2.

pEC50, pIC50: −log10 of the molar value.

Sequence of LRRK2 (Q5S007 whole entry): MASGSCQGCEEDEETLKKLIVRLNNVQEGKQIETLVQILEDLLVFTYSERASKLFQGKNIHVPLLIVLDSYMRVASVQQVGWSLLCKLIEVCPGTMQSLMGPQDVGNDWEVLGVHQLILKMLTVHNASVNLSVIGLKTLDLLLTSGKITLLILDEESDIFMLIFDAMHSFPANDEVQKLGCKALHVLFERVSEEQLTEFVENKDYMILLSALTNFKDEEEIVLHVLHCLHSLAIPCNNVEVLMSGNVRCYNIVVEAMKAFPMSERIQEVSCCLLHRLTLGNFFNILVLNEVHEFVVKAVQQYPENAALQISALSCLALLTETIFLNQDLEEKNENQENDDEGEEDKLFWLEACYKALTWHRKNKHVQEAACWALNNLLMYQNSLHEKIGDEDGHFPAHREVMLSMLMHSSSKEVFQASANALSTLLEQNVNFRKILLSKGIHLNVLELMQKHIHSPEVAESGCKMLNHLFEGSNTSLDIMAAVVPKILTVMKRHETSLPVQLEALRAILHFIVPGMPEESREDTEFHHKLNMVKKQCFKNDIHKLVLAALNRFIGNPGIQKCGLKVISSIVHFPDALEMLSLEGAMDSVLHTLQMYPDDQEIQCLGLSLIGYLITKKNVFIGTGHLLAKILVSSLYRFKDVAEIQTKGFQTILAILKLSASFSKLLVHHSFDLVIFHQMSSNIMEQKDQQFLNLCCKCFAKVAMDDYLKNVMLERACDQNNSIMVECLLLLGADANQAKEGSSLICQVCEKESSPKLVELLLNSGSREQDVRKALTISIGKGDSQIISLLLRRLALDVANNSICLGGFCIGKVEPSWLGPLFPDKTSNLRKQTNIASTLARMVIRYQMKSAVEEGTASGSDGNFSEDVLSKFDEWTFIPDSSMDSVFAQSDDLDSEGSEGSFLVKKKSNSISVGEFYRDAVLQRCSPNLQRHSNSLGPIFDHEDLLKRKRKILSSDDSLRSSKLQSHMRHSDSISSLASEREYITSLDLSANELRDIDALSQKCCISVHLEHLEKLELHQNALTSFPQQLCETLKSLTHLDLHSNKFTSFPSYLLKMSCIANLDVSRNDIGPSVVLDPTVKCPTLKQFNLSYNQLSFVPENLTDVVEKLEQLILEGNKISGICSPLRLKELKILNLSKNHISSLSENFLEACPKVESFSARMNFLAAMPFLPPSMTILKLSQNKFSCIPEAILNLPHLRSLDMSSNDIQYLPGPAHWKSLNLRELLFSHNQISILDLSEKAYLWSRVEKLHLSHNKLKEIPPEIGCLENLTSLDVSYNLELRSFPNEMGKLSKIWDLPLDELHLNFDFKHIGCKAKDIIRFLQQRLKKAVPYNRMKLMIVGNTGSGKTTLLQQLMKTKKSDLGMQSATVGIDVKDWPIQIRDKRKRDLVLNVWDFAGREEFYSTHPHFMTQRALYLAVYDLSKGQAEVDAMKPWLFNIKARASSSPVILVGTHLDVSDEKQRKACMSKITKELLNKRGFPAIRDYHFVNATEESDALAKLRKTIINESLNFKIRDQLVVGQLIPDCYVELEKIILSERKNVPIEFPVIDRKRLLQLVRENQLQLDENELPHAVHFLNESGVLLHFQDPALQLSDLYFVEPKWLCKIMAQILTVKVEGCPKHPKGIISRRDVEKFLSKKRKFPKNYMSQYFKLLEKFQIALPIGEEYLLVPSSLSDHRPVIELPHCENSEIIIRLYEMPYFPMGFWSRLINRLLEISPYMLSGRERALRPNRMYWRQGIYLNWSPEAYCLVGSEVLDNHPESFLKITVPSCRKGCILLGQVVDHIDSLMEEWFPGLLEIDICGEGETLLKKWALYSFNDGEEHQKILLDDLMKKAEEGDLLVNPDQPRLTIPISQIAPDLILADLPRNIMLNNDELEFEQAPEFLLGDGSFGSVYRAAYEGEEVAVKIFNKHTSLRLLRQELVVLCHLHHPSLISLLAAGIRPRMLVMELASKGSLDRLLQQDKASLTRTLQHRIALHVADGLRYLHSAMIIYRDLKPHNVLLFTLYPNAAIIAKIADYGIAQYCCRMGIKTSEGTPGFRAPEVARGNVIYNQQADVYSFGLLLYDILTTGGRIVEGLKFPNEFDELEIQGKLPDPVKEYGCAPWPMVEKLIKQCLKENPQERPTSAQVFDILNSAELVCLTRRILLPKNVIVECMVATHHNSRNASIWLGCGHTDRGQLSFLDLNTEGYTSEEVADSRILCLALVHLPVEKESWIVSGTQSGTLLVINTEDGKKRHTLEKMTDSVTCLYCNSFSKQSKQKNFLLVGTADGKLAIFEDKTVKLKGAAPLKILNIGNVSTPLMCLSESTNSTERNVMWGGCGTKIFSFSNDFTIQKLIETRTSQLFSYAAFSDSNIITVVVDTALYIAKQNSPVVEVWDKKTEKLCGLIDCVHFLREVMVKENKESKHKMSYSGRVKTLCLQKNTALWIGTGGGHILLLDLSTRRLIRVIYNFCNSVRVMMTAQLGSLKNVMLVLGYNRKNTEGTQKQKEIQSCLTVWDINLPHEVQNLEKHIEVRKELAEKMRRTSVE
T5 sequence (P23458 whole entry): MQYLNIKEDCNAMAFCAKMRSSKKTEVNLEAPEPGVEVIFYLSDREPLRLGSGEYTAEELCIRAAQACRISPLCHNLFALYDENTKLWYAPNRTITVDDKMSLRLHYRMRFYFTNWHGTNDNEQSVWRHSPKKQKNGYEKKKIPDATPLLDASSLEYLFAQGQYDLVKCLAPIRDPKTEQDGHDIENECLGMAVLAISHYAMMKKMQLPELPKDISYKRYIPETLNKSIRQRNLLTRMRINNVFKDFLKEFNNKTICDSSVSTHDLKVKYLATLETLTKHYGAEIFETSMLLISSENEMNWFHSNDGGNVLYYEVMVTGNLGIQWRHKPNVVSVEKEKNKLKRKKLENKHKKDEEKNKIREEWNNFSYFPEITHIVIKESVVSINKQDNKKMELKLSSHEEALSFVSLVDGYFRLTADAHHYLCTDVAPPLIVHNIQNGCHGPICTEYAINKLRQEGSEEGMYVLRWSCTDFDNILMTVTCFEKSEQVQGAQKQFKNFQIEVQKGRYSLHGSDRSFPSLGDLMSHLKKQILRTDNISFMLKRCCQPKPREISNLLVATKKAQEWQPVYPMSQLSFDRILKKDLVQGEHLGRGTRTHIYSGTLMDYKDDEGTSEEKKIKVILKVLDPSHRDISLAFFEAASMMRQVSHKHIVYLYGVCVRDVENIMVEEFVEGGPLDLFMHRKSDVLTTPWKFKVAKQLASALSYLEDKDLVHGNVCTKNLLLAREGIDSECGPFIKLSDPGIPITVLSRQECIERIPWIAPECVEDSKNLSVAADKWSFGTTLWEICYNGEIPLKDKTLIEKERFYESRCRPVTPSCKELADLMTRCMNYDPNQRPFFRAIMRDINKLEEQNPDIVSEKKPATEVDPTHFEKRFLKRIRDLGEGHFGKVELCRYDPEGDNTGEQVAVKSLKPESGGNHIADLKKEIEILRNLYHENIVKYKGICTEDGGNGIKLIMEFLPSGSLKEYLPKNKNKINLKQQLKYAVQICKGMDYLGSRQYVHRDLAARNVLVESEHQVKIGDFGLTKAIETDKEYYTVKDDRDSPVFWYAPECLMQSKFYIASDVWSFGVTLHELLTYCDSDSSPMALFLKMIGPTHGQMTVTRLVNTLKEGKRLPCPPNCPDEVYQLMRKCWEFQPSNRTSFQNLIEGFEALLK
Sequence of JAK2 (O60674 whole entry): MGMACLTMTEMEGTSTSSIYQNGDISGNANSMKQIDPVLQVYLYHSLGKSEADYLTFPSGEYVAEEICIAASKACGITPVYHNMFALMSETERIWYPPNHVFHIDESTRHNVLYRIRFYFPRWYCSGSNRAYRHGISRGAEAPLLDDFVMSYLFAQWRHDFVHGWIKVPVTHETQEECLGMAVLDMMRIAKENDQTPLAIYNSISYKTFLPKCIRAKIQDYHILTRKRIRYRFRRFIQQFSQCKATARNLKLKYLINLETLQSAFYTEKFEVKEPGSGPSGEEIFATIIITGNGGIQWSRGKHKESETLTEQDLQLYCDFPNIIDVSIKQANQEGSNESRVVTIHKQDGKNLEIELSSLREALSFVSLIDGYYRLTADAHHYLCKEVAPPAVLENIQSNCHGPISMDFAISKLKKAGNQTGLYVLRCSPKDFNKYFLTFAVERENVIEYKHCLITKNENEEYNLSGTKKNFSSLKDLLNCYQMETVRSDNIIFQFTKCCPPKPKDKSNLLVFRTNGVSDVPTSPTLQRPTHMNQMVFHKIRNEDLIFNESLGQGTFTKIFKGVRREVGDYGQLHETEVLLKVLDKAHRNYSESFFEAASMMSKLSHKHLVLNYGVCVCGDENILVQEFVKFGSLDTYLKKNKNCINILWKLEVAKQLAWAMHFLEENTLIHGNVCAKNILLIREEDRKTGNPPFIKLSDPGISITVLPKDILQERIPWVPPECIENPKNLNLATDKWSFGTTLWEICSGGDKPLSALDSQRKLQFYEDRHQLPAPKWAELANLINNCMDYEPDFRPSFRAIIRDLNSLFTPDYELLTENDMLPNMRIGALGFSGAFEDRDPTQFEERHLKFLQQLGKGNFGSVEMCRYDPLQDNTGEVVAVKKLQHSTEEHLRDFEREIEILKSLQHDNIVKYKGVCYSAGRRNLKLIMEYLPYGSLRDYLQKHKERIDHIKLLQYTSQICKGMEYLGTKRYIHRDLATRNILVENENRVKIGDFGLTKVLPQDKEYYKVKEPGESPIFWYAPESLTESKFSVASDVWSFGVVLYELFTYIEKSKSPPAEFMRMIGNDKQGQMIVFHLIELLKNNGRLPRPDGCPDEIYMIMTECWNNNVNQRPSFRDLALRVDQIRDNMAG
T1 sequence (Q5S007 whole entry): as the sequence (Q5S007 whole entry) above
T2 sequence (Q5S007 whole entry G2019S): as the sequence (Q5S007 whole entry) above, with G2019S counted along it

With `CC(C)S(=O)(=O)c1ccccc1Nc1nc(Nc2ccc3c(c2)OCCN(C)CCO3)ncc1C(F)(F)F` [Example 82, N^4-(2-(isopropylsulfonyl)phenyl)-N^2-(4-methyl-3,4,5,6-tetrahydro-2H-benzo[b][1,4, 7]dioxazolin-9-yl)-5-(trifluoromethyl)pyrimidin-2,4-diamine], the values for the inhibition at 0.01 µM in [1], in assay [4] (setting [10]) and in assay [5] (read-out: inhibition rate JAK2) were 40 to 79%, above 80% and 40 to 79%, respectively. In addition, the pEC50 in [2] and in [3] was above 6.30 throughout. In addition, the pIC50 in assay [4] is above 7.30.
`C=CC(=O)Nc1cccc(Nc2nc(Nc3ccc4c(c3)OCCN(C)CCO4)ncc2Cl)c1` [Example 55, N-(3-((5-chloro-2-((4-methyl-3,4,5,6-tetrahydro-2H-benzo[b][1,4,7]dioxazolin-9-yl)amino)pyrimidin-4-yl)amino)phenyl)acrylamide]: the pEC50 in assay [6] is 6.30 to 7.30. The figures for the inhibition at 0.01 µM in [5] (read-out: inhibition rate JAK2) and in assay [7] were 25 to 39% and above 80%, respectively.
Turning to `CN1CCOc2ccc(Nc3nc(Nc4ccccc4P(C)(C)=O)c4cc[nH]c4n3)cc2OCC1` [Example 73, dimethyl(2-((2-((4-methyl-3,4,5,6-tetrahydro-2H-benzo[b][1,4,7]dioxazolin-9-yl)amino)-7H-pyrrolo[2,3-d]pyrimidin-4-yl)amino)phenyl)phosphine oxide], the inhibition at 0.01 µM is 40 to 79% in assay [1], above 80% in assay [4] (setting [10]), above 80% in assay [5] (read-out: inhibition rate JAK2) and above 80% in assay [7]. For the same compound, the pEC50 in assay [2] and in [3] was above 6.30 throughout. In addition, the pIC50 in assay [4] is above 7.30.
For the compound `CN1CCOc2ccc(Nc3nc(-c4cnn(C(CC#N)C5CCCC5)c4)c4cc[nH]c4n3)cc2OCC1` (centres unmarked) [Example 27, 3-cyclopentyl-3-(4-(2-((4-methyl-3,4,5,6-tetrahydro-2H-benzo[b][1,4,7]dioxazolin-9-yl)amino)-7H-pyrrolo[2,3-d]pyrimidin-4-yl)-1H-pyrazol-1-yl)propanenitrile], the pEC50 in [6] and in assay [8] was above 7.30 in each case. Further, the inhibition at 0.01 µM in assay [9] (at 10 nM, read-out: inhibition rate JAK1) was 40 to 79%; in [5] (read-out: inhibition rate JAK2), above 80%. In addition, the inhibition at 0.1 µM in [9] (at 100 nM, read-out: inhibition rate JAK1) is above 80%; in assay [4] (at 100 nM, read-out: inhibition rate LRRK2), above 80%; in assay [5] (at 100 nM, read-out: inhibition rate JAK2) it was above 80%. In addition, the pIC50 is above 7.30 in assay [9] (kinase activity assay, Table 3); above 7.30 in assay [4]; above 7.30 in assay [5] (kinase activity assay, Table 3).
